Experimental findings from patent US20120040930A1, “TETRACYCLIC TERPENE SERIES COMPOUNDS, METHODS FOR PREPARING SAME, USES THEREOF AS MEDICINES AND PHARMACEUTICAL COMPOUNDS CONTAINING SAME” (priority 2005, published 2012) are described below.

The target of test [1] is T1, human serum butyrylcholinesterase (BChE) (Homo sapiens, UniProt P06276).
T1 construct: BChE isolated from human serum; from tissue; host or cells: human serum
As to the kind of experiment: biochemical. The note with it: human serum BChE; read-out: BChE.

In test [2] the target is T2, acetylcholinesterase (AChE) isolated from Electrophorus electricus (Electrophorus electricus, UniProt O42275).
T2 construct: AChE isolated from Electrophorus electricus; from tissue
In words: biochemical.

Where [3] appears, read: AChE isolated from Electrophorus electricus, read-out: AChE IC50.

Read-outs that look alike come from different tables or passages of the source.

T2 sequence (O42275 24-633): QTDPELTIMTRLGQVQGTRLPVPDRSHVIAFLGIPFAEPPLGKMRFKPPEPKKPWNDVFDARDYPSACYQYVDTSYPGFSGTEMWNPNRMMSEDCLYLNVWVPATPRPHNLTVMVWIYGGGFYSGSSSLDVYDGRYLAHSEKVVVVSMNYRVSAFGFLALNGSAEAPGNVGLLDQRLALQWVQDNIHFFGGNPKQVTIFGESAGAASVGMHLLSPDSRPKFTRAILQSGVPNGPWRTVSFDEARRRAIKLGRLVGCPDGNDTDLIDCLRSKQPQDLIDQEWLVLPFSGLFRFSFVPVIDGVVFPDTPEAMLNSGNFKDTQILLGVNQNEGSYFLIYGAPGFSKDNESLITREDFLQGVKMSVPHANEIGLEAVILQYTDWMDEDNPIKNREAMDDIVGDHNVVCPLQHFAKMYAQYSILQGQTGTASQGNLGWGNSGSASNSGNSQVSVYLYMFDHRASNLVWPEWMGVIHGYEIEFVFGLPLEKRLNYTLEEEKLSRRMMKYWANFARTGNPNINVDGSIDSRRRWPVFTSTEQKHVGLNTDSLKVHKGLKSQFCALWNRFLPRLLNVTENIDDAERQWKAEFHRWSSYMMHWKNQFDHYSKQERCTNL
T1 sequence (P06276 29-602): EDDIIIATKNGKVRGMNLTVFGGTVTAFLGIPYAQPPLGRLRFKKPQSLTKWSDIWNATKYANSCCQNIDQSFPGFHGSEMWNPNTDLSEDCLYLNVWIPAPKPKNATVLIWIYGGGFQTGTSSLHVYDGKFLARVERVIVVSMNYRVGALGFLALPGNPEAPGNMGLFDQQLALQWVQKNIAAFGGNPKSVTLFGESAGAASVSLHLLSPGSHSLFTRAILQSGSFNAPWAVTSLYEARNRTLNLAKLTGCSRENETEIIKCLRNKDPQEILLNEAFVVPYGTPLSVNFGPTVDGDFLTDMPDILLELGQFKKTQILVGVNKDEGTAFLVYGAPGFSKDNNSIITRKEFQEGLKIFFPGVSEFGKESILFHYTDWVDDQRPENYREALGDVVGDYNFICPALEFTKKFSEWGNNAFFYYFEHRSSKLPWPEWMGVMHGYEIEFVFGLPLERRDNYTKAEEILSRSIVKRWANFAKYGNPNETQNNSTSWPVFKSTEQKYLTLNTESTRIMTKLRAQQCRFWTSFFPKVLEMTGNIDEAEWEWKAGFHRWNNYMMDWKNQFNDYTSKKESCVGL

`CCC(C)C(=O)N[C@H]1CC=C2C[C@H]3C(=O)C[C@]4(C)[C@@H]([C@H](C)N(C)C)[C@H](O)C[C@@]4(C)[C@@H]3CC[C@H]2[C@]1(C)CO` (mixture of isomers) [Compound 7h, (20S)-10(9->1)abeo-4α-hydroxymethyl-4,14α-dimethyl-20-dimethylamino-3 (2-methylbutyrylamino)-5α,9-pregn-1(10)-en-16α-ol-11-one]: the IC50 in test [1] turned out to be 1930 nM; in test [2] (AChE IC50), 120 nM.

On to `CCC(C)C1=N[C@H]2CC=C3C[C@H]4C(=O)C[C@]5(C)[C@@H]([C@H](C)N(C)C)[C@H](O)C[C@@]5(C)[C@@H]4CC[C@H]3[C@]2(C)CO1` (mixture of isomers) [Compound 8h, (20S)-10(9->1)abeo-4,14α-dimethyl-20-dimethylamino(2′-(1-methylpropyl)-4′,4′ dihydro[3′,1′]oxazin)-5α,9-pregn-1(10)-en-16α-ol-11-one], for which the IC50 in test [1] came out at 1540 nM; in test [2] (setting [3]), 27 nM.

As to `CC(C)C(=O)N[C@H]1CC=C2C[C@H]3C(=O)C[C@]4(C)[C@@H]([C@H](C)N(C)C)[C@H](O)C[C@@]4(C)[C@@H]3CC[C@H]2[C@]1(C)CO` [Compound 3, (20S)-10(9->1)abeo-4α-hydroxymethyl-3-isobutyrylamino-4,14α-dimethyl-20-dimethylamino-5α,9-pregn-1(10)-en-16α-ol-11-one], in test [1], the IC50 worked out at 7410 nM.

On to `C[C@@H]([C@H]1[C@H](O)C[C@@]2(C)[C@@H]3CC[C@@H]4C(=CC[C@@H]5N=C(Cc6ccccc6)OC[C@]54C)C[C@H]3C(=O)C[C@]12C)N(C)C` [Compound 8g, (20S)-10(9->1)abeo-4,14α-dimethyl-20-dimethylamino-(2′-(1-benzyl)-4′,4′-dihydro[3′,1′]oxazine)-5α,9-pregn-1(10)-en-16α-ol-11-one], for which the IC50 in test [1] is over 10000 nM. The same measure, in the same setting: with `CCC(CC)C1=N[C@H]2CC=C3C[C@H]4C(=O)C[C@]5(C)[C@@H]([C@H](C)N(C)C)[C@H](O)C[C@@]5(C)[C@@H]4CC[C@H]3[C@]2(C)CO1` [Compound 8i, (20S)-10(9->1)abeo-4,14α-dimethyl-20-dimethylamino(2′-(1-ethylpropyl)-4′,4′-dihydro[3′,1′]oxazin)-5α,9-pregn-1(10)-en-16α-ol-11-one] the figure was 380 nM. Consider `CC(C)C(=O)N[C@H]1CCC23C[C@]24C(=O)C[C@]2(C)[C@@H]([C@H](C)N(C)C)[C@H](O)C[C@@]2(C)[C@@H]4CC[C@H]3[C@]1(C)CNC([Si](C)(C)C)[Si](C)(C)C` (stereo partly drawn) [Compound 55, (20S)-3β-isobutyrylamino-20-dimethylamino-9,19-cyclo-4β,14α-dimethyl-4α-(bis-(trimethylsilanyl)methylamino)methyl-5α,9β-pregnan-16α-ol-11-one], for which the IC50 in test [2] (setting [3]) is over 100000 nM. With `CC(C)C(=O)N[C@H]1CCC23C[C@]24C(=O)C[C@]2(C)[C@@H]([C@H](C)N(C)C)[C@H](OC(=O)C(C)(C)C)C[C@@]2(C)[C@@H]4CC[C@H]3[C@]1(C)CNC([Si](C)(C)C)[Si](C)(C)C` (stereo partly drawn) [Compound 56, (20S)-3β-isobutyrylamino-20-dimethylamino-9,19-cyclo-4β,14α-dimethyl-4α-(bis-(trimethylsilanyl)methylamino)methyl-16α-pivalyl-5α,9β-pregnan-11-one], in test [2] (setting [3]), the IC50 was over 100000 nM. `CC(C)C(=O)N[C@H]1CCC23C[C@]24C(=O)C[C@]2(C)[C@@H]([C@H](C)N(C)C)[C@H](O[Si](C)(C)C(C)(C)C)C[C@@]2(C)[C@@H]4CC[C@H]3[C@]1(C)CNC([Si](C)(C)C)[Si](C)(C)C` (stereo partly drawn) [Compound 57, (20S)-3β-isobutyrylamino-20-dimethylamino-9,19-cyclo-4β,14α-dimethyl-4α-(bis-(trimethylsilanyl)methylamino)methyl-16α-(tert-butyl-dimethyl-silanyloxy)-5α,9β-pregnan-11-one]: the IC50 in test [2] (setting [3]) is over 100000 nM. Still for that read-out and setting: with `CC[C@H](C)C(=O)N[C@H]1CCC23C[C@]24C(=O)C[C@]2(C)[C@@H]([C@H](C)N(C)C)[C@H](OC(C)=O)C[C@@]2(C)[C@@H]4CC[C@H]3[C@]1(C)C=O` (stereo partly drawn) [Compound 59, (20S)-16α-acetyl-3β-((S)-2-methylbutyrylamino)-20-dimethylamino-9,19-cyclo-4α-formyl-4β,14α-dimethyl-5α,9β-pregnan-11-one] the figure was over 100000 nM; with `CC[C@H](C)C(=O)N[C@H]1CCC23C[C@]24C(=O)C[C@]2(C)[C@@H]([C@H](C)N(C)C)[C@H](O)C[C@@]2(C)[C@@H]4CC[C@H]3[C@]1(C)C=O` (stereo partly drawn) [Compound 60, (20S)-20-dimethylamino-3β-((S)-2-methylbutyrylamino)-9,19-cyclo-4α-formyl-4β,14α-dimethyl-5α,9β-pregnan-16α-ol-11-one], over 100000 nM; with `CC[C@H](C)C(=O)N[C@H]1CCC23C[C@]24C(=O)C[C@]2(C)[C@@H]([C@H](C)N(C)C)[C@H](O)C[C@@]2(C)[C@@H]4CC[C@H]3[C@]1(C)/C=N/Cc1ccccc1` (stereo partly drawn) [Compound 61, (20S)-20-dimethylamino-3β-((S)-2-methylbutyrylamino)-9,19-cyclo-4α-benzyliminomethyl-4β,14α-dimethyl-5α,9β-pregnan-16α-ol-11-one], over 100000 nM. Still for that read-out and setting: with `CC[C@H](C)C(=O)N[C@H]1CCC23C[C@]24C(=O)C[C@]2(C)[C@@H]([C@H](C)N(C)C)[C@H](O)C[C@@]2(C)[C@@H]4CC[C@H]3[C@]1(C)CNCc1ccccc1` (stereo partly drawn) [Compound 62, (20S)-20-dimethylamino-3β-((S)-2-methylbutyrylamino)-9,19-cyclo-4α-benzylaminomethyl-4β,14α-dimethyl-5α,9β-pregnan-16α-ol-11-one] the figure was at least 100000 nM; with `CC[C@H](C)C(=O)N[C@H]1CCC23C[C@]24C(=O)C[C@]2(C)[C@@H]([C@H](C)N(C)C)[C@H](O)C[C@@]2(C)[C@@H]4CC[C@H]3[C@]1(C)CN` (stereo partly drawn) [Compound 63, (20S)-20-dimethylamino-3β-((S)-2-methylbutyrylamino)-9,19-cyclo-4α-aminomethyl-4β,14α-dimethyl-5α,9β-pregnan-16α-ol-11-one], 637 nM; with `CCC(C)C1=NC2CCC34C[C@]35C(=O)C[C@]3(C)[C@@H]([C@H](C)N(C)C)[C@H](O)C[C@@]3(C)[C@@H]5CC[C@H]4[C@]2(C)CN1` (stereo partly drawn) [Compound 64, (20S)-20-dimethylamino-9,19-cyclo-4β,14α-dimethyl-(2-(S)-sec-butyl-5β-methyl-1,4,5,6-tetrahydro-pyrimidin-5-yl)-5α,9β-pregnan-16α-ol-11-one], 14 nM. Consider `CC[C@H](C)C(=O)N[C@H]1CC=C2C[C@H]3C(=O)C[C@]4(C)[C@@H]([C@H](C)N(C)C)[C@H](OC(C)=O)C[C@@]4(C)[C@@H]3CC[C@H]2[C@]1(C)CO` [Compound 65], for which the IC50 in test [2] (AChE IC50) came out at 7940 nM. Take `CC[C@H](C)C(=O)N[C@H]1CC=C2C[C@H]3C(=O)C[C@]4(C)[C@@H]([C@H](C)N(C)C)[C@H](OC(C)=O)C[C@@]4(C)[C@@H]3CC[C@H]2[C@]1(C)C=O` [Compound 66]: the IC50 in test [2] (setting [3]) was over 100000 nM.

For `CC[C@H](C)C(=O)N[C@H]1CC=C2C[C@H]3C(=O)C[C@]4(C)[C@@H]([C@H](C)N(C)C)[C@H](O)C[C@@]4(C)[C@@H]3CC[C@H]2[C@]1(C)C=O` [Compound 67, (20S)-10(9->1)-abeo-20-dimethylamino-3-((S)-2-methylbutyrylamino)-4α-formyl-4β,14α-dimethyl-5α,9β-pregn-1(10)-en-16α-ol-11-one], the IC50 in test [2] (setting [3]) was over 100000 nM.

For the molecule `CC[C@H](C)C(=O)N[C@H]1CC=C2C[C@H]3C(=O)C[C@]4(C)[C@@H]([C@H](C)N(C)C)[C@H](O)C[C@@]4(C)[C@@H]3CC[C@H]2[C@]1(C)/C=N/Cc1ccccc1` [Compound 68, (20S)-10(9->1)-abeo-20-dimethylamino-3-((S)-2-methylbutyrylamino)-4α-benzyliminomethyl-4β,14α-dimethyl-5α,9β-pregn-1(10)-en-16α-ol-11-one], the IC50 in test [2] (read-out: AChE IC50) is 780 nM. Regarding `CC[C@H](C)C(=O)N[C@H]1CC=C2C[C@H]3C(=O)C[C@]4(C)[C@@H]([C@H](C)N(C)C)[C@H](O)C[C@@]4(C)[C@@H]3CC[C@H]2[C@]1(C)CNCc1ccccc1` [Compound 69, (20S)-10(9->1)abeo-20-dimethylamino-3β-((S)-2-methylbutyrylamino)-4α-benzylaminomethyl-4β,14α-dimethyl-5α,9β-pregn-1(10)-en-16α-ol-11-one], the IC50 in test [2] (setting [3]) is over 100000 nM.

As for `CC[C@H](C)C(=O)N[C@H]1CC=C2C[C@H]3C(=O)C[C@]4(C)[C@@H]([C@H](C)N(C)C)[C@H](O)C[C@@]4(C)[C@@H]3CC[C@H]2[C@]1(C)CN` [Compound 70, (20S)-10(9->1)-abeo-20-dimethylamino-3-((S)-2-methylbutyrylamino)-4α-aminomethyl-4β,14α-dimethyl-5α,9β-pregn-1(10)-en-16α-ol-11-one], in test [2] (read-out: AChE IC50), the IC50 stood at 368 nM.

Turning to `CC[C@H](C)C1=N[C@H]2CC=C3C[C@H]4C(=O)C[C@]5(C)[C@@H]([C@H](C)N(C)C)[C@H](O)C[C@@]5(C)[C@@H]4CC[C@H]3[C@]2(C)CN1` [Compound 71, (20S)-10(9->1)-abeo-20-dimethylamino-4β,14α-dimethyl-(2-(S)-sec-butyl-5β-methyl-1,4,5,6-tetrahydro-pyrimidin-5-yl)-5α,9β-pregnan-1(10)-en-16α-ol-11-one], the IC50 in test [2] (read-out: AChE IC50) was determined as 28 nM.

As for `CC(C)C(=O)N[C@H]1CC[C@]23CC24C(=O)C[C@]2(C)[C@@H]([C@H](C)N(C)C)[C@H](O)C[C@@]2(C)[C@@H]4CC[C@H]3[C@]1(C)CS` (stereo partly shown) [Compound 76], the IC50 in test [2] (setting [3]) was determined as 43000 nM. Still for that read-out and setting: with “(20S)-3β-isobutyrylamino-20-methylamino-9,19-cyclo-4α-benzylaminomethyl-4β,14α-dimethyl-16α-pivalyl-5α,9β-pregnan-11-one [Compound 48]” the figure was 17500 nM.
